In patent publication US20190054022A1, “FORMULATIONS OF SITE-SPECIFIC, MICROPARTICULATE COMPOSITIONS AND THEIR USE TO IMPROVE OUTCOME AFTER ANEURSYMAL SUBARACHNOID HEMORRHAGE” (Edge Therapeutics, Inc., priority 2016, published 2019):
Like-named read-outs stand apart in the source and are kept apart here.

How the values were obtained:
[1] = system: patients with aneurysmal SAH; conditions: in vivo; cited from earlier work
[2] = system: patients with SAH secured by surgical clipping; conditions: cited from earlier work
[3] = system: patients with SAH secured by endovascular coiling; conditions: cited from earlier work; for patients with primary end point: placebo 27%; for patients with poor outcome (extended Glasgow Outcome Scale score <1=4): placebo 24%
[4] = Nimodipine release in vivo: plasma concentration after subcutaneous injection; design: species or system Wistar rats; conditions: 20 mg/kg or 200 mg/kg
Description: A mobile phase of water:methyl alcohol:tetrahydrofuran was used (60:20:20) at 2 mL/min with detection at 235 nm.
Blood samples were collected from two alternating cohorts of 2 or 3 animals/cohort in the microparticle formulation-injected groups. Collection was immediately before injection and then 1, 12, and 24 hours post dose, and on days 4, 8, 11, and 15. After the last blood sample collection interval, the surviving animals were euthanized via carbon dioxide inhalation. Animals were euthanized by cervical dislocation and the carcasses were discarded.

[5] = system: double hemorrhage dog model of SAH; assay: Mongrel dog SAH efficacy study: angiographic vasospasm (basilar artery diameter); format: in vivo, mongrel dogs
Description: Dose translation from animal to human studies revisited. […] Dogs were euthanized on day 28 or 49. Dogs were anesthetized as described above, blood was collected and blood pressure, temperature, heart rate and oxygen saturation were monitored continuously while animals were under anesthesia. Blood gases were obtained before and after the injections. Cerebral angiography was performed through a 4F catheter inserted into the femoral artery and advanced under fluoroscopic guidance into the proximal portion of one vertebral artery using a guide wire. […] Images were captured digitally using identical exposure factors and magnification and an internal magnification standard was included in every angiogram. […] One half of the blood was injected, followed by injection of microparticles and then the remaining blood. The needle was withdrawn and the dogs were kept 30° head down for 15 minutes after which the femoral catheter was removed, the artery was ligated, and the incision was closed. For […] injection, the blood was injected into the cisterna magna and then the dog was placed prone in a stereotactic unit. […] Blood was injected into the cisterna magna using the same procedure as on day 1 except that microparticles were not injected. Angiography was repeated on days 8 and 15. The diameter of the basilar artery was measured at 5 equally spaced points by two blinded observers and the means averaged. Angiographic vasospasm was assessed by comparing the diameters of basilar arteries from Days 1, 8 and 15 and the time course and severity of angiographic vasospasm was determined. Dogs were weighed weekly and examined daily for 14 days, including behavior examination [Zhou C, Yamaguchi […], Zhang J H. Role of p53 and apoptosis in cerebral vasospasm after experimental subarachnoid hemorrhage. J Cereb Blood Flow Metab 2005; 25:572-82.]. […] Indirect blood pressure was measured in awake dogs daily for the first 14 days and weekly thereafter.

[6] = system: double hemorrhage dog model of SAH; assay: Mongrel dog SAH study: behavior, blood pressure, microthrombi, neuronal injury; format: in vivo, mongrel dogs; conditions: placebo microparticle plus oral nimodipine
Description: Blood was injected into the cisterna magna using the same procedure as on day 1 except that microparticles were not injected. Angiography was repeated on days 8 and 15. The diameter of the basilar artery was measured at 5 equally spaced points by two blinded observers and the means averaged. Angiographic vasospasm was assessed by comparing the diameters of basilar arteries from Days 1, 8 and 15 and the time course and severity of angiographic vasospasm was determined. Dogs were weighed weekly and examined daily for 14 days, including behavior examination [Zhou C, Yamaguchi […], Zhang J H. Role of p53 and apoptosis in cerebral vasospasm after experimental subarachnoid hemorrhage. J Cereb Blood Flow Metab 2005; 25:572-82.]. […] Indirect blood pressure was measured in awake dogs daily for the first 14 days and weekly thereafter. Dogs were euthanized by an intravenous overdose of sodium pentobarbital. They were perfused through the heart with PBS followed by 10% neutral buffered formalin. […] Neuronal degeneration and apoptosis were scored by a pathologist blinded to the assigned group on a semi-quantitative scale as normal, minimal, mild, moderate or severe. Microthrombi present in three (3) 100×100 μm fields were counted.

[7] = Mongrel dog SAH study: plasma and CSF nimodipine concentration; format: in vivo, mongrel dogs; conditions: oral 5.2 mg/kg daily, day 3 (highest), n=7
[8] = oral, total single day dose of 360 mg; cited from earlier work
R-type calcium current = target: T1, R-type calcium current (Rattus norvegicus, UniProt Q07652); conditions: at 40 nM concentration; cited from earlier work
T1 construct: R-type calcium current in the neurohypophysial nerve endings at 40 nM concentration; host or cells: neurohypophysial nerve endings
T1 sequence (Q07652 whole entry): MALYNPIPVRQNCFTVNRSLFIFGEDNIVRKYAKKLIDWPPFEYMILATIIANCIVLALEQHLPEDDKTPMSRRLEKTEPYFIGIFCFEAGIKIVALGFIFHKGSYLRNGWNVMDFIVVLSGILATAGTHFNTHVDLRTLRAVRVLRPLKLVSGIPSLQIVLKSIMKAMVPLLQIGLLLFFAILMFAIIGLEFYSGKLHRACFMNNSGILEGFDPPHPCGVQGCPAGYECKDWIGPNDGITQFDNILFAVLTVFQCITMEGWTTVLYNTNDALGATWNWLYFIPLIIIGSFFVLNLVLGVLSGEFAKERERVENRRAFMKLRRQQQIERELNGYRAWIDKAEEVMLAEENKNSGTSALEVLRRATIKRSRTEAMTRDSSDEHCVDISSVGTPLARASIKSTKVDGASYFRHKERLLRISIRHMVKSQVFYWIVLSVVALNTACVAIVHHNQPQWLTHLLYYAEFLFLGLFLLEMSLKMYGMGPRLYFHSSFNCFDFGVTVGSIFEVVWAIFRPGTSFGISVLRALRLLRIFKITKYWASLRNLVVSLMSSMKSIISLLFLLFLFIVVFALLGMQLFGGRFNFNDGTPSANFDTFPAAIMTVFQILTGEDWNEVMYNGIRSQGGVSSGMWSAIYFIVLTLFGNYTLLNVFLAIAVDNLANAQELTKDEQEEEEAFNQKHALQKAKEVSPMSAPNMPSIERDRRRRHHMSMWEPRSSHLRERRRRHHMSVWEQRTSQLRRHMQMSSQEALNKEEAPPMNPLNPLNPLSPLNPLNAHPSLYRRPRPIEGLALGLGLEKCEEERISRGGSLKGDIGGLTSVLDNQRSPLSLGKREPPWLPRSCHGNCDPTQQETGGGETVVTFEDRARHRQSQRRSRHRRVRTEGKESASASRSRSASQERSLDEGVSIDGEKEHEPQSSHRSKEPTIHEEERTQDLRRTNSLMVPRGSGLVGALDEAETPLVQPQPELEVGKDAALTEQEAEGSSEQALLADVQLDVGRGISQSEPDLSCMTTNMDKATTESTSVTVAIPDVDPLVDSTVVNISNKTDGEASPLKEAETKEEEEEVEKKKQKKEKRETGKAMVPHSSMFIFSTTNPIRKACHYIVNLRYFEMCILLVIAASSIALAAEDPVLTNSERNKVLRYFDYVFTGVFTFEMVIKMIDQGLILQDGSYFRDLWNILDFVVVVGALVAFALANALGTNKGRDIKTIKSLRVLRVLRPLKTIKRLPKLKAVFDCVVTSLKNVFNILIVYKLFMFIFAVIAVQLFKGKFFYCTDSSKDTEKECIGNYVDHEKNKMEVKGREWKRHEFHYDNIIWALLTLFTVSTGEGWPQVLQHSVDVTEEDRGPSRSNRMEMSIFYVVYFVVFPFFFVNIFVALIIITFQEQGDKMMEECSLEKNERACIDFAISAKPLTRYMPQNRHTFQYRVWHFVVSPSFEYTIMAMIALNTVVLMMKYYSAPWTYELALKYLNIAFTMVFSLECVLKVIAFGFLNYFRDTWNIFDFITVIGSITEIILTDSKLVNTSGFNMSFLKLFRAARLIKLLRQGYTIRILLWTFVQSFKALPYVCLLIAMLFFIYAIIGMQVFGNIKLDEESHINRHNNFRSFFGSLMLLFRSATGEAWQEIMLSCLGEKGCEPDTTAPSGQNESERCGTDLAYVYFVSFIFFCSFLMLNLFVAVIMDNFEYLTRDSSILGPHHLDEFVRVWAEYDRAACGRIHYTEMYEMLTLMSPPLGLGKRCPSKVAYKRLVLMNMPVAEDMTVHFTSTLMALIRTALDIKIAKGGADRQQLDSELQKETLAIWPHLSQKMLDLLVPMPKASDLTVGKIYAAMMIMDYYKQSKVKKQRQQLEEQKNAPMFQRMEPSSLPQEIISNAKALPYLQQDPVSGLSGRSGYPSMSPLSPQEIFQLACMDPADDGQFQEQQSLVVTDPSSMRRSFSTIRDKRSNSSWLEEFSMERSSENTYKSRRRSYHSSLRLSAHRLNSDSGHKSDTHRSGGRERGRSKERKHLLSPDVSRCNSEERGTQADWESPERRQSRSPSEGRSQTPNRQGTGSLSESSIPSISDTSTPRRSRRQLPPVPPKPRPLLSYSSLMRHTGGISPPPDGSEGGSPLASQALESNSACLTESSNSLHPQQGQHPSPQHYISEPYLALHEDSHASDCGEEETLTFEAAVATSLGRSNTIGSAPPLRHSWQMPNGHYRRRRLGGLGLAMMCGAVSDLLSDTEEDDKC

N-type calcium current = N-type calcium current (Homo sapiens, UniProt Q00975); conditions: at 300 nM to 500 nM; cited from earlier work
Sequence of N-type calcium current (Q00975 whole entry): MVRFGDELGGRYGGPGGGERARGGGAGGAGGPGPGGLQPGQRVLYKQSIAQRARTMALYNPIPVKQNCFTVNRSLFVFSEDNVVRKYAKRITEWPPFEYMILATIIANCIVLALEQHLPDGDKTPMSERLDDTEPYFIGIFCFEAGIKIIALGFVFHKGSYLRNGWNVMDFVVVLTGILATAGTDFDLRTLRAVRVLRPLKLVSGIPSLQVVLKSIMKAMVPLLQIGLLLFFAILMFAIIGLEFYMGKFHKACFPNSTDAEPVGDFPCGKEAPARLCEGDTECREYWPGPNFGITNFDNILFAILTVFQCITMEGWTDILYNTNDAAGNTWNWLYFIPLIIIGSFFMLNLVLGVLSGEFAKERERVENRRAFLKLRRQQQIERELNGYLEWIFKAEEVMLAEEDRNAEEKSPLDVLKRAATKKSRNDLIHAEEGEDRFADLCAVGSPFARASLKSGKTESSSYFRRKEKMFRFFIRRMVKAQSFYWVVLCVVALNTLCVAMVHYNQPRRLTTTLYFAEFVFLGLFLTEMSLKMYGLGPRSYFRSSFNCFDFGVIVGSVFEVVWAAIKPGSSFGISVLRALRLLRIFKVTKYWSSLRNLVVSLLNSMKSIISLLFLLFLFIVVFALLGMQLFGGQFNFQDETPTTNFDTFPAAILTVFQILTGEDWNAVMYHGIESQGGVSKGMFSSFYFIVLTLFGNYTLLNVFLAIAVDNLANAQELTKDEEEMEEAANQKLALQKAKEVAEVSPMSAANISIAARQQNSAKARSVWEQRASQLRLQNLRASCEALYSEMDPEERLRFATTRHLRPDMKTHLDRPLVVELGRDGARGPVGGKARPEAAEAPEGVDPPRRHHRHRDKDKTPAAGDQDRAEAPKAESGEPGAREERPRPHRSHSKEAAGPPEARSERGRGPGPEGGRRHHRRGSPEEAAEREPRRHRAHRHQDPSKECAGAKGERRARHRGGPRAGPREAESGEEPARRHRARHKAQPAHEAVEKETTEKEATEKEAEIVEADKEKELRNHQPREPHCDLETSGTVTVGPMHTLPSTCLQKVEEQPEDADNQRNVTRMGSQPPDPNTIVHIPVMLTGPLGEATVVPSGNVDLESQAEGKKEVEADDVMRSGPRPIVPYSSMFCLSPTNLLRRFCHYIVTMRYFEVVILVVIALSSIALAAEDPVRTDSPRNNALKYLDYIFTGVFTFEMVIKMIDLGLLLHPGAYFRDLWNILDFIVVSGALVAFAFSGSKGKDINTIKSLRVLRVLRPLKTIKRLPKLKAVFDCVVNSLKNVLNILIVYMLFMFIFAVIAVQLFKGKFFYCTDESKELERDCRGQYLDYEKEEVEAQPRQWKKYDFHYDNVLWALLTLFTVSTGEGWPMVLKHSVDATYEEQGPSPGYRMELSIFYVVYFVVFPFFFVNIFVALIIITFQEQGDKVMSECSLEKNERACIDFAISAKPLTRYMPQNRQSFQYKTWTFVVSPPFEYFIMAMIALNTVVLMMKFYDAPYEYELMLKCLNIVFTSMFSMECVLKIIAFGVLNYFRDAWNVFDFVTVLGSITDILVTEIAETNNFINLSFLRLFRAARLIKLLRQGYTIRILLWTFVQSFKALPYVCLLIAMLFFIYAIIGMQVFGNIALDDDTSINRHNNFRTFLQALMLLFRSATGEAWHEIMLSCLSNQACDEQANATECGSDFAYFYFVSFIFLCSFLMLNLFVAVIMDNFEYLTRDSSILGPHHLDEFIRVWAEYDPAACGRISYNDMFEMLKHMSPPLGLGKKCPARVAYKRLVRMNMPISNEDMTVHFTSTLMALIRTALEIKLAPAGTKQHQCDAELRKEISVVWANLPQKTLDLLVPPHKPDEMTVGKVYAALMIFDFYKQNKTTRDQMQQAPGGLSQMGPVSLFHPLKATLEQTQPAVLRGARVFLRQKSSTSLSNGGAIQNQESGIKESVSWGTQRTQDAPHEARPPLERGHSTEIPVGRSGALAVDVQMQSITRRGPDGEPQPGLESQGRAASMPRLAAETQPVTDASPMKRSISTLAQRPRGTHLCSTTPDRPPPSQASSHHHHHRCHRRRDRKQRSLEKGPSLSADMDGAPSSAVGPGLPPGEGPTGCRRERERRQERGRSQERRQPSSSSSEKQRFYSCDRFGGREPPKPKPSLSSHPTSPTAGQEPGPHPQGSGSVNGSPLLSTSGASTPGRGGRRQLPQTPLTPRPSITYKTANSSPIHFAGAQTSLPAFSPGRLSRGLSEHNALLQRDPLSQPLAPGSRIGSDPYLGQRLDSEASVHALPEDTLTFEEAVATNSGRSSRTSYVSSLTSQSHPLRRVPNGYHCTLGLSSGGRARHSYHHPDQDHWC

[9] = system: K+ and Na+ currents, and L, P/Q and T-type calcium currents; conditions: cited from earlier work
[10] = placebo microparticles + oral nimodipine 5.2 mg/kg daily for 21 days, n = 8

## COc1ccccc1Oc1c(NS(=O)(=O)c2ccc(C)cn2)nc(-c2ccnc(-c3nnn[nH]3)c2)nc1OCCO [clazosentan]
[1]
  incidence of angiographic vasospasm after aneurysmal SAH: significantly reduced the incidence of angiographic vasospasm
[2]; 5 mg/h up to 14 days, 161 of 764, placebo 25%
  patients meeting primary composite endpoint (week 6): all-cause mortality, vasospasm-related new cerebral infarcts, delayed ischemic neurological deficit, rescue therapy: 21%
[2]; 5 mg/h, 95% CI −4 to 33, p=0.10
  relative risk reduction, primary endpoint: 17%
[2]; 5 mg/h, 224 patients, placebo 25%
  patients with poor functional outcome (GOSE score <1=4): 29%
[2]; 5 mg/h, both groups
  Mortality (week 12): 6%
[2]; 5 mg/h
  adverse events versus placebo: Lung complications, anaemia, and hypotension were more common
  effect on mortality and vasospasm-related morbidity or functional outcome: no significant effect
[2]; 5 mg/h, −45 to 4, p=0.10
  relative risk reduction, poor functional outcome: −18%
[3]; 5 mg/h, 47/194
  patients with primary end point: 24%
[3]; 5 mg/h, 95% CI 0.479-1.289, P=0.340
  odds ratio, primary end point: 0.786
[3]; 5 mg/h, 95% CI 0.546-1.544, P=0.748
  odds ratio, poor outcome: 0.918
[3]; 5 mg/h
  patients with poor outcome (extended Glasgow Outcome Scale score <1=4): 25%
[3]; 15 mg/h, 28/188
  patients with primary end point: 15%
[3]; 15 mg/h, 95% CI 0.275-0.818, P=0.007
  odds ratio, primary end point: 0.474
[3]; 15 mg/h, 95% CI 0.802-2.227, P=0.266
  odds ratio, poor outcome: 1.337
[3]; 15 mg/h
  post aneurysmal SAH vasospasm-related morbidity/all-cause mortality: significantly reduced
  patients with poor outcome (extended Glasgow Outcome Scale score <1=4): 28%
[3]; 5 or 15 mg/h
  adverse events versus placebo: Pulmonary complications, anemia, and hypotension were more common
  outcome (extended Glasgow Outcome Scale): neither dose improved outcome

## COCCOC(=O)C1=C(C)NC(C)=C(C(=O)OC(C)C)C1c1cccc([N+](=O)[O-])c1 (centres unmarked) [nimodipine, Isopropyl 2-methoxyethyl 1,4-dihydro-2,6-dimethyl-4-(m-nitrophenyl)-3,5-pyridinedicarboxylate]
[4]
  release of nimodipine over time in vivo (plasma): Sustained release of nimodipine over time was observed
[5]; [10]
  % change compared to day 1, Day 8: (−27.9 ± 3.0) %
  % change compared to day 1, Day 15: (−11.7 ± 4.5) %
  Angiographic diameter of basilar artery (mm), Day 8: 1.08 ± 0.12 mm
  Angiographic diameter of basilar artery (mm), Day 15: 1.32 ± 0.17 mm
[5]; placebo microparticles + oral nimodipine 5.2 mg/kg daily for 21 days, n = 8, baseline
  Angiographic diameter of basilar artery (mm), Day 1: 1.51 ± 0.13 mm
[5]; placebo microparticles with oral nimodipine, ANOVA P=0.001
  basilar artery diameter 8 and 15 days after SAH versus day 1: significant reductions in basilar artery diameter
[6]
  dogs with microthrombi: one
[7]
  concentration of nimodipine in CSF: 1.56 ± 1.17 ng/mL
[8]
  bioavailability: about 28%

## SNX-482
R-type calcium current
  block of R-type calcium current: blocks
N-type calcium current
  block of N-type calcium current: 30-50%
[9]
  effect on other currents: no effect is observed
